Results on one compound are retold here after patent publication US20210189444A1, “METHOD OF PURIFYING CANNABINOIDS FROM YEAST FERMENTATION BROTH” (Demetrix, Inc., priority 2019, published 2021).

The data set in a line: solubility of CBGA and CBG in water as a function of pH (solubility curves, FIG. 4).

With `CCCCCc1cc(O)c(C/C=C(\C)CCC=C(C)C)c(O)c1C(=O)O` [CBGA, cannabigerolic acid], the “solubility in aqueous phase” value (pH 11.5 (25% KOH), water:IPM 4:1) is on record as “soluble”. The solubility in water entry (pH <2) is given as “insoluble”.
